These results are taken from ChEMBL document CHEMBL3875198, “Synthesis and biological properties of galactofuranosyl-containing fluorescent dyes” (Bioorg Med Chem Lett, 2017).

The nature of data set [1]: Cellular uptake in human macrophages infected with amastigote form of Leishmania donovani MHOM/SD/LEM3427 at 80 uM measured after 6 hrs by Hoechst-33342 staining based epifluorescence microscopy. In kind it is ADME, cell-based. Conditions: macrophage.
Data set [2] can be described thus: Drug uptake in human macrophage cytoplasm infected with amastigote form of Leishmania donovani MHOM/SD/LEM3427 at 80 uM measured after 6 to 18 hrs by Hoechst-33342 staining based epifluorescence microscopy. It counts as ADME.
Data set [3] has as its system Leishmania donovani. The experiment in a line: Antileishmanial activity against amastigote form of Leishmania donovani MHOM/SD/LEM3427 infected in human macrophages assessed as reduction in macrophage infection at 80 uM measured after 48 hrs. It counts as functional.
Data set [4] concerns Leishmania donovani. The experiment in a line: Antileishmanial activity against amastigote form of Leishmania donovani MHOM/SD/LEM3427 infected in human macrophages assessed as reduction in amastigote multiplication at 80 uM measured after 48 hrs. It counts as functional.
For data set [5], the system named is Leishmania donovani. The experiment in a line: Antileishmanial activity against amastigote form of Leishmania donovani MHOM/SD/LEM3427 infected in human macrophages assessed as phenotypic surface alterations by MGG-staining based analysis. It counts as functional.

Activity calls are given as the source filed them. No cut-off for these calls is given here.

Take `O=C(O)c1cc(NC(=S)NCCCCCCO[C@@H]2O[C@@H]([C@H](O)CO)[C@H](O)[C@H]2O)ccc1-c1c2ccc(=O)cc-2oc2cc(O)ccc12`: the Drug uptake result in data set [1] and in data set [2] was “Active” throughout.

Turning to `CC/N=c1/cc2oc3cc(NCC)c(C)cc3c(-c3ccccc3C(=O)NCCCCCCO[C@@H]3O[C@@H]([C@H](O)CO)[C@H](O)[C@H]3O)c-2cc1C.Cl`, the Drug uptake entry in data set [1] and in data set [2] was “Active” throughout. Besides, the outcome in the data set with Leishmania donovani [3] and with Leishmania donovani [4] was Active.

`CC/N=c1\cc2oc3cc(NCC)c(C)cc3c(-c3ccccc3C(=O)OCC)c-2cc1C.Cl` [RHODAMINE 6G HYDROCHLORIDE]: the Drug uptake entry in data set [1] and in data set [2] was “Active” in each case. Also, in the data set with Leishmania donovani [5], the outcome was Active.
